From patent publication US12171755B2, “PAPD5 inhibitors and methods of use thereof” (Children's Medical Center Corporation, priority 2017, dated 2024)

Target: T1, PAPD5 (Homo sapiens, UniProt Q8NDF8)
T1 construct: made in house
Assay: High-throughput luminescence (KinaseGlo) RNA polyadenylation assay, ATP utilization by recombinant PAPD5
Assay type: biochemical
Settings: Table 4 (entries of Table 5), ratio of luminescence with inhibitor to DMSO; for Fold-change determined at compound concentration 33 μM: 33 μM compound; for Fold-change determined at compound concentration 100 μM: 100 μM compound, higher = higher inhibition
Protocol: Optimal conditions for an in vitro RNA polyadenylation assay using recombinant PAPD5, ATP and an oligonucleotide substrate were identified. The HTS assay involved ATP utilization by PAPD5, which reads out as a decreased luminescence signal produced by luciferase (KinaseGlo, Promega, Madison, WI).
100 nl of compound dissolved in DMSO was transferred to each well of the assay plate via pin transfer. For negative control wells, DMSO alone was added. Plates were gently vortexed for 5 seconds, then incubated for 2 hours at room temperature.
After 2 hours, 5 ul of luciferase (Promega KinaseGlo, Madison, WI) was added using a MultiDrop Combi (Thermo Fisher Scientific, Waltham, MA). The mixture was gently vortexed for 5 seconds and incubated for 10 minutes at room temperature. Plates were spun for 1 minute prior to luminescence measurements. Luminescent measurements were quantitated using a PerkinElmer EnVision™ plate reader.
˜100,000 compounds from various libraries at the ICCB-Longwood were screened in this manner in duplicate.
The fold change was the ratio of luminescence from a sample with inhibitor compared to that with DMSO. Thus, a higher number indicates higher inhibition.

T1 sequence (Q8NDF8 68-698 isoform Q8NDF8-5): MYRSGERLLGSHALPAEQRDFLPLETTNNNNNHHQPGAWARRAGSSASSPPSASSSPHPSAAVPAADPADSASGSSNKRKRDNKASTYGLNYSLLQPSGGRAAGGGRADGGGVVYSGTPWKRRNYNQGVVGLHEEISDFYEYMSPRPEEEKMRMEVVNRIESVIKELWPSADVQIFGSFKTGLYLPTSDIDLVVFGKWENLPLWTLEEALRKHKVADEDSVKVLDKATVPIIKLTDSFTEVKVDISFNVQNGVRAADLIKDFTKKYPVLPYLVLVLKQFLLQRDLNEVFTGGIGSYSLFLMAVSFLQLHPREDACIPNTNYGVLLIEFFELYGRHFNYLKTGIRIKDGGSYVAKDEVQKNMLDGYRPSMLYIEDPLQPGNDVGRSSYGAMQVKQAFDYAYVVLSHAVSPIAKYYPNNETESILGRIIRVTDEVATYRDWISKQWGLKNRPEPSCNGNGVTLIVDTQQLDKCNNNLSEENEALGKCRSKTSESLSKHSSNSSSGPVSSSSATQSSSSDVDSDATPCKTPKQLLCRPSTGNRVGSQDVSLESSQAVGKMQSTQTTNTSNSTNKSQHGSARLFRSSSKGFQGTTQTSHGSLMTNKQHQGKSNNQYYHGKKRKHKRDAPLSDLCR

SMILES | Fold-change determined at compound concentration 33 μM | Fold-change determined at compound concentration 100 μM
O=C(CCCn1c(=O)c2cccn2c2ccc(Br)cc21)N1CCCC1 [Entry 65, 7-bromo-5-(4-oxo-4-pyrrolidin-1-ylbutyl)pyrrolo[1,2-a]quinoxalin-4-one] | 1.23 | 1.394
CCCCN(CC)C(=O)CCCn1c(=O)c2cccn2c2ccccc21 [Entry 66, N-butyl-N-ethyl-4-(4-oxopyrrolo[1,2-a]quinoxalin-5-yl)butanamide] | 1.083 | 1.229
COc1ccc(NC(=O)CCn2c(=O)c3cccn3c3ccccc32)c(OC)c1 [Entry 67, N-(2,4-dimethoxyphenyl)-3-(4-oxopyrrolo[1,2-a]quinoxalin-5-yl)propanamide] | 1.122 | 1.238
CCN(CC)CCNC(=O)c1ccc(Cn2c(=O)c3cccn3c3cccnc32)cc1 [Entry 69, N-(2-(diethylamino)ethyl)-4-((6-oxopyrido[2,3-e]pyrrolo[1,2-a]pyrazin-5(6H)-yl)methyl)benzamide] | 1.116 | 1.223
CN(C)CCNC(=O)c1ccc(Cn2c(=O)c3cccn3c3cccnc32)cc1 [Entry 70, N-[2-(dimethylamino)ethyl]-4-[(6-oxopyrido[2,3-e]pyrrolo[1,2-a]pyrazin-5(6H)-yl)methyl]benzamide] | 1.103 | 1.206
CCCCn1c(=O)c2sccc2n2c(=S)[nH]nc12 [Entry 71, 4-butyl-1-thioxo-2,4-dihydrothieno[2,3-e][1,2,4]triazolo[4,3-a]pyrimidin-5(1H)-one] | 1.173 | 1.531
CCCn1c(=O)c2cc(F)ccc2n2c(=S)[nH]nc12 [Entry 72, 7-fluoro-4-propyl-1-thioxo-2,4-dihydro[1,2,4]triazolo[4,3-a]quinazolin-5(1H)-one] | 1.099 | 1.256
CC(C)Cn1c(=O)c2ccccc2n2c(=S)[nH]nc12 [Entry 73, 4-isobutyl-1-thioxo-2,4-dihydro[1,2,4]triazolo[4,3-a]quinazolin-5(1H)-one] | 1.093 | 1.278
CC(C)CCn1c(=O)c2ccccc2n2c(=S)[nH]nc12 [Entry 74, 1-mercapto-4-(3-methylbutyl)[1,2,4]triazolo[4,3-a]quinazolin-5(4H)-one] | 1.372 | 1.87
O=c1c2sccc2n2c(=S)[nH]nc2n1Cc1ccccc1 [Entry 75, 4-benzyl-1-thioxo-2,4-dihydrothieno[2,3-e][1,2,4]triazolo[4,3-a]pyrimidin-5(1H)-one] | 1.11 | 1.324
CCc1ccc(Cn2c(=O)c3sccc3n3c(=S)[nH]nc23)cc1 [Entry 76, 4-(4-ethylbenzyl)-1-thioxo-2,4-dihydrothieno[2,3-e][1,2,4]triazolo[4,3-a]pyrimidin-5(1H)-one] | 1.7195 | 1.423
CCn1c(SCC(=O)O)nc2c(=O)n(C)c(=O)n(C)c21 [Entry 77, 2-(9-ethyl-1,3-dimethyl-2,6-dioxopurin-8-yl)sulfanylacetic acid] | 1.142 | 1.419
Cn1c(=O)c2nc(SCCC(=O)O)n(Cc3ccc(F)cc3)c2n(C)c1=O [Entry 78, 3-{[9-(4-fluorobenzyl)-1,3-dimethyl-2,6-dioxo-2,3,6,9-tetrahydro-1H-purin-8-yl]sulfanyl}propanoic acid] | 1.05 | 1.26
